Literature values, collected in patent US20250231185A1, “Coronavirus T Cell Epitopes, Megapools and Uses Thereof” (La Jolla Institute for Immunology, priority 2021, published 2025).
Like-named read-outs stand apart in the source and are kept apart here.

Tested on: CD8+ T cells
Conditions: cited from earlier work
[1] = T cell subset (CD4 or CD8) recognizing the SARS-CoV-2-derived epitope
[2] = CD8RE megapool peptides (non-spike SARS-CoV-2 antigens), dominant epitope Yes/No
[3] = T cell type (CD4 or CD8) recognizing the SARS-CoV-2 epitope
[4] = SARS-CoV-2-derived CD8 epitopes, dominant = recognized by 3 or more donors/different studies
[5] = SARS-CoV-2 Ag S, T cell type recognizing the epitope
[6] = CD8R (D) megapool epitopes, dominant = recognized by 3 or more donors/different studies

For 582 (GETLPTEVL) [compound 582], the Restriction [1] is given as “CD8”.
In the case of 602 (TPVVQTIEV) [compound 602], the Restriction [1] is listed as “CD8”.
In the case of 3018 (FLNRFTTTL) [compound 3018], the Dominant [2] is listed as “Yes (more dominant epitopes are defined by being recognized by 3 or more donors/different studies)”.
In the case of 974 (TITQMNLKY) [compound 974], the Restriction [3] is given as “CD8”.
For 972 (NVIPTITQM) [compound 972], the Restriction [3] is listed as “CD8”.
For 555 (LPAADLDDF) [compound 555], the Dominant [4] is given as “Yes (more dominant epitopes are defined by being recognized by 3 or more donors/different studies)” and the Restriction [1] is given as “CD8”.
For 1332 (NTSNQVAVLY) [compound 1332], the Restriction [5] is listed as “CD8”.
For 936 (VRQALLKTV) [compound 936], the Restriction [3] is listed as “CD8”.
For 918 (VPANSTVL) [compound 918], the Restriction [3] is listed as “CD8”.
For 1022 (KPPISFPL) [compound 1022], the Restriction [3] is given as “CD8”.
In the case of 653 (HTQVVDMSMTY) [compound 653], the Restriction [1] is listed as “CD8”.
In the case of 948 (TSFGPLVRK) [compound 948], the Restriction [3] is given as “CD8”.
For 1755 (KMQRMLLEK) [compound 1755], the Dominant [6] is listed as “Yes (more dominant epitopes are defined by being recognized by 3 or more donors/different studies)”.
For 997 (LRKHFSMMI) [compound 997], the Restriction [3] is listed as “CD8”.
In the case of 952 (FVVSTGYHFR) [compound 952], the Restriction [3] is listed as “CD8”.
For 524 (RTATKAYNV) [compound 524], the Restriction [1] is given as “CD8”.
In the case of 595 (FEPSTQYEY) [compound 595], the Restriction [1] is listed as “CD8”.
For 3038 (IVGVALLAVF) [compound 3038], the Dominant [2] is listed as “Yes (more dominant epitopes are defined by being recognized by 3 or more donors/different studies)”.
In the case of 690 (NYYKKDNSY) [compound 690], the Restriction [1] is given as “CD8”.
In the case of 2978 (AIMTRCLAV) [compound 2978], the Dominant [2] is listed as “Yes (more dominant epitopes are defined by being recognized by 3 or more donors/different studies)”.
For 662 (TTDPSFLGRYM) [compound 662], the Dominant [4] is given as “Yes (more dominant epitopes are defined by being recognized by 3 or more donors/different studies)” and the Restriction [1] is given as “CD8”.
For 1751 (KVDGVDVEL) [compound 1751], the Dominant [6] is given as “Yes (more dominant epitopes are defined by being recognized by 3 or more donors/different studies)”.
In the case of 946 (STVFPPTSF) [compound 946], the Restriction [3] is given as “CD8”.
For 1348 (SPRRARSV) [compound 1348], the Restriction [5] is listed as “CD8”.
For 611 (YENFNQHEV) [compound 611], the Restriction [1] is listed as “CD8”.
For 684 (DVFYKENSY) [compound 684], the Restriction [1] is given as “CD8”.
In the case of 1376 (IYKTPPIKDF) [compound 1376], the Restriction [5] is listed as “CD8”.
For 2953 (FVDGVPFVV) [compound 2953], the Dominant [2] is listed as “Yes (more dominant epitopes are defined by being recognized by 3 or more donors/different studies)”.
In the case of 1035 (FAIGLALYY) [compound 1035], the Restriction [3] is listed as “CD8”.
For 608 (EAKKVKPTV) [compound 608], the Restriction [1] is given as “CD8”.
In the case of 1672 (TLACFVLAAV) [compound 1672], the Dominant [6] is listed as “Yes (more dominant epitopes are defined by being recognized by 3 or more donors/different studies)”.
For 919 (VPANSTVLSF) [compound 919], the Restriction [3] is listed as “CD8”.
In the case of 968 (KSAGFPFNK) [compound 968], the Restriction [3] is listed as “CD8”.
For 521 (QQQQGQTVTK) [compound 521], the Dominant [4] is given as “Yes (more dominant epitopes are defined by being recognized by 3 or more donors/different studies)” and the Restriction [1] is given as “CD8”.
For 563 (HVGEIPVAY) [compound 563], the Restriction [1] is listed as “CD8”.
In the case of 954 (NLHSSRLSF) [compound 954], the Restriction [3] is given as “CD8”.
In the case of 1668 (GTITVEELK) [compound 1668], the Dominant [6] is listed as “Yes (more dominant epitopes are defined by being recognized by 3 or more donors/different studies)”.
In the case of 1419 (SKRVDFCGKGY) [compound 1419], the Restriction [5] is listed as “CD8”.
In the case of 965 (FVVEVVDKY) [compound 965], the Restriction [3] is given as “CD8”.
In the case of 1333 (TSNQVAVLY) [compound 1333], the Restriction [5] is given as “CD8”.
In the case of 513 (NPANNAAIVL) [compound 513], the Dominant [4] is given as “Yes (more dominant epitopes are defined by being recognized by 3 or more donors/different studies)” and the Restriction [1] is given as “CD8”.
For 1394 (IPFAMQMAY) [compound 1394], the Restriction [5] is given as “CD8”.
In the case of 672 (ARAGEAANF) [compound 672], the Restriction [1] is given as “CD8”.
In the case of 1709 (LPAADLDDF) [compound 1709], the Dominant [6] is given as “Yes (more dominant epitopes are defined by being recognized by 3 or more donors/different studies)”.
In the case of 2936 (AQFAPSASAF) [compound 2936], the Dominant [2] is given as “Yes (more dominant epitopes are defined by being recognized by 3 or more donors/different studies)”.
For 1730 (LVLSVNPYV) [compound 1730], the Dominant [6] is listed as “Yes (more dominant epitopes are defined by being recognized by 3 or more donors/different studies)”.
For 1712 (TVLSFCAFAV) [compound 1712], the Dominant [6] is given as “Yes (more dominant epitopes are defined by being recognized by 3 or more donors/different studies)”.
In the case of 1767 (NYMPYFFTL) [compound 1767], the Dominant [6] is listed as “Yes (more dominant epitopes are defined by being recognized by 3 or more donors/different studies)”.
In the case of 1032 (VPQEHYVRI) [compound 1032], the Restriction [3] is given as “CD8”.
In the case of 605 (NSFSGYLKL) [compound 605], the Restriction [1] is listed as “CD8”.
For 3020 (FLLPSLATV) [compound 3020], the Dominant [2] is listed as “Yes (more dominant epitopes are defined by being recognized by 3 or more donors/different studies)”.
For 612 (LLSAGIFGA) [compound 612], the Restriction [1] is given as “CD8”.
For 1717 (KLFDRYFKY) [compound 1717], the Dominant [6] is given as “Yes (more dominant epitopes are defined by being recognized by 3 or more donors/different studies)”.
For 949 (SFGPLVRKI) [compound 949], the Restriction [3] is listed as “CD8”.
In the case of 2950 (TMADLVYAL) [compound 2950], the Dominant [2] is given as “Yes (more dominant epitopes are defined by being recognized by 3 or more donors/different studies)”.
For 651 (RTIKVFTTV) [compound 651], the Restriction [1] is given as “CD8”.
For 566 (KTIQPRVEK) [compound 566], the Dominant [4] is given as “Yes (more dominant epitopes are defined by being recognized by 3 or more donors/different studies)” and the Restriction [1] is given as “CD8”.
In the case of 1043 (RPQIGVVREF) [compound 1043], the Restriction [3] is listed as “CD8”.
For 3039 (ALSKGVHFV) [compound 3039], the Dominant [2] is given as “Yes (more dominant epitopes are defined by being recognized by 3 or more donors/different studies)”.
In the case of 698 (DVVAIDYKHY) [compound 698], the Restriction [1] is given as “CD8”.
In the case of 1765 (YLATALLTL) [compound 1765], the Dominant [6] is given as “Yes (more dominant epitopes are defined by being recognized by 3 or more donors/different studies)”.
In the case of 1697 (QQQQGQTVTK) [compound 1697], the Dominant [6] is listed as “Yes (more dominant epitopes are defined by being recognized by 3 or more donors/different studies)”.
For 639 (SLINTLNDL) [compound 639], the Restriction [1] is given as “CD8”.
In the case of 1692 (NPANNAAIVL) [compound 1692], the Dominant [6] is given as “Yes (more dominant epitopes are defined by being recognized by 3 or more donors/different studies)”.
In the case of 1374 (VFAQVKQIY) [compound 1374], the Restriction [5] is listed as “CD8”.
For 615 (AVFDKNLYDK) [compound 615], the Restriction [1] is listed as “CD8”.
In the case of 1068 (YNLWNTFTRL) [compound 1068], the Restriction [3] is given as “CD8”.
For 1380 (TLADAGFIK) [compound 1380], the Restriction [5] is listed as “CD8”.
In the case of 2951 (LLMPILTLT) [compound 2951], the Dominant [2] is given as “Yes (more dominant epitopes are defined by being recognized by 3 or more donors/different studies)”.
In the case of 509 (ATEGALNTPK) [compound 509], the Dominant [4] is listed as “Yes (more dominant epitopes are defined by being recognized by 3 or more donors/different studies)” and the Restriction [1] is listed as “CD8”.
In the case of 530 (DYKHWPQIAQF) [compound 530], the Restriction [1] is given as “CD8”.
In the case of 1302 (GNYNYLYRLF) [compound 1302], the Restriction [5] is given as “CD8”.
In the case of 959 (AAISDYDYY) [compound 959], the Restriction [3] is given as “CD8”.
In the case of 1704 (MEVTPSGTW) [compound 1704], the Dominant [6] is listed as “Yes (more dominant epitopes are defined by being recognized by 3 or more donors/different studies)”.
In the case of 3053 (LEYHDVRVVL) [compound 3053], the Dominant [2] is given as “Yes (more dominant epitopes are defined by being recognized by 3 or more donors/different studies)”.
For 522 (KSAAEASKK) [compound 522], the Restriction [1] is given as “CD8”.
For 1081 (LLLDDFVEI) [compound 1081], the Restriction [3] is listed as “CD8”.
In the case of 1691 (ATEGALNTPK) [compound 1691], the Dominant [6] is listed as “Yes (more dominant epitopes are defined by being recognized by 3 or more donors/different studies)”.
For 2912 (AVILRGHLR) [compound 2912], the Dominant [2] is given as “Yes (more dominant epitopes are defined by being recognized by 3 or more donors/different studies)”.
In the case of 1385 (LLTDEMIAQY) [compound 1385], the Restriction [5] is listed as “CD8”.
In the case of 1357 (NSIAIPTNF) [compound 1357], the Restriction [5] is given as “CD8”.
For 1742 (TYACWHHSI) [compound 1742], the Dominant [6] is listed as “Yes (more dominant epitopes are defined by being recognized by 3 or more donors/different studies)”.
For 504 (GTGPEAGLPY) [compound 504], the Dominant [4] is given as “Yes (more dominant epitopes are defined by being recognized by 3 or more donors/different studies)” and the Restriction [1] is given as “CD8”.
For 1816 (IQYIDIGNY) [compound 1816], the Dominant [6] is listed as “Yes (more dominant epitopes are defined by being recognized by 3 or more donors/different studies)”.
For 1689 (SPRWYFYYL) [compound 1689], the Dominant [6] is listed as “Yes (more dominant epitopes are defined by being recognized by 3 or more donors/different studies)”.
In the case of 596 (DDYQGKPLEF) [compound 596], the Restriction [1] is listed as “CD8”.
For 1771 (QLMCQPILLL) [compound 1771], the Dominant [6] is given as “Yes (more dominant epitopes are defined by being recognized by 3 or more donors/different studies)”.
In the case of 556 (AADLDDFSKQL) [compound 556], the Restriction [1] is given as “CD8”.
In the case of 991 (VRNLQHRLY) [compound 991], the Restriction [3] is given as “CD8”.
